Results as given in PubChem BioAssay (NCI).
Where “and” joins values, the source holds several entries; their conditions need not be identical. Equal values may be shown once.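 Briefly, cells in 96-well plates were exposed to five compound concentrations for 48 h, and endpoints were estimated by linear interpolation. GI50: concentration for 50% inhibition of growth. TGI: concentration producing complete growth inhibition.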

How the values were obtained:
Assay in all cases: DTP human tumour cell line panel, 48 h
[1] = test system: SR leukemia
[2] = test system: 786-0 renal
[3] = test system: UO-31 renal
[4] = test system: HCT-116 colon
[5] = test system: NCI-H23 lung
[6] = test system: KM12 colon
[7] = test system: UACC-257 melanoma
[8] = test system: SN12C renal
[9] = test system: BT-549 breast
[10] = test system: DU-145 prostate

SMILES | TGI [1] [µM] | TGI [2] [µM] | TGI [3] [µM] | TGI [4] [µM] | TGI [5] [µM] | TGI [6] [µM] | TGI [7] [µM] | TGI [8] [µM] | GI50 [2] | GI50 [4] [µM] | GI50 [5] | GI50 [8] [µM] | TGI [9] [µM] | TGI [10] [µM] | GI50 [9] [µM] | GI50 [3] [µM] | GI50 [6] [µM] | GI50 [7] [µM] | GI50 [10] [µM] | GI50 [1] [nM]
COC(=O)C1(O)c2ccccc2N=C2C1CCN2C (stereo unspecified) | > 100 | > 100 | > 100 | > 100 | > 100 | > 100 | > 100 | > 100 | – | – | – | – | – | – | – | – | – | – | – | –
O=C(CSc1ncc(-c2ccccc2)n1-c1ccccc1)Nc1ccc(-c2nc3ccccc3s2)cc1 | – | > 100 | – | > 100 | > 100 | – | – | > 100 | 5.34 µM | 3.68 | 20.4 µM | 71.5 | – | – | – | – | – | – | – | –
COc1cc2c(cc1O)C1CC(CC3CCCCN31)OC(=O)/C=C\c1ccc(O)c-2c1 (stereo unspecified) | – | > 100 | 65 | > 100 | > 100 | 34.8 | 39.7 | > 100 | – | – | – | – | 67.5 | 89.6 | – | – | – | – | – | –
CC1(C)CC(N2CCN(C3CC(C)(C)NC(C)(C)C3)CC2)CC(C)(C)N1 | > 100 | > 100 | > 100 | > 100 | > 100 | > 100 | > 100 | > 100 | – | – | – | – | – | – | – | – | – | – | – | –
COC(=O)C1=C(\O)C[C@@]2(C)CC[C@@H](C(=O)OC)C2C/C=C\1C(=O)OC (stereo partly specified) | > 100 | > 100 | > 100 | > 100 | – | > 100 | > 100 | > 100 | – | – | – | – | – | – | – | – | – | – | – | –
CCCCCCCCCCCC(=O)OC(COC(N)=O)COc1ccc(Cl)cc1 (stereo unspecified) | – | > 100 | > 100 | 30 | 46 | 61.1 | 51 | 70 | – | – | – | – | – | – | – | – | – | – | – | –
Cc1ccc(NC(=O)C(=O)CC(=O)c2ccccc2)cc1C | – | > 100 | > 100 | > 100 | > 100 | > 100 | > 100 | > 100 | – | – | – | – | – | – | – | – | – | – | – | –
Cc1[nH]n(-c2cccc(Cl)c2)c(=O)c1/C=C1\C=c2ccccc2=CC1=O | – | 86.6 | > 100 | > 100 | > 100 | > 100 | > 100 | > 100 | 21.5 µM | > 100 | 48 µM | > 100 | > 100 | > 100 | 27.3 | > 100 | > 100 | > 100 | 70 | –
COC(=O)NC(=O)c1cn(C2CCCCC2)c(=O)[nH]c1=O | > 100 | > 100 | > 100 | > 100 | > 100 | > 100 | > 100 | > 100 | – | – | – | – | – | – | – | – | – | – | – | –
O=C(Nc1ccccc1)Nc1ccc(Cl)c(Cl)c1 | – | > 100 | 21.9 | > 100 | > 100 | 20.5 | 32.9 | > 100 | 3.7 µM | 3.03 | 2.58 µM | 3 | 85.9 | > 100 | 4.99 | 2.62 | 2.64 | 3.73 | 3.69 | –
N#CC1C(=O)NC(=O)C1=O (stereo unspecified) | – | > 100 | > 100 | > 100 | > 100 | > 100 | > 100 | > 100 | – | – | – | – | – | – | – | – | – | – | – | –
O=C(/C=C/c1ccc(O)cc1)c1cc(Cl)ccc1O | 54.6 | > 100 | 70.5 | 58 | > 100 | > 100 | > 100 | > 100 | – | – | – | – | – | – | – | – | – | – | – | –
O=C1c2ccccc2C(=O)c2c1ccc1c2N=C(c2ccc(Br)cc2)CC(c2cccc3ccccc23)N1 (stereo unspecified) | > 100 | > 100 | > 100 | – | > 100 | > 100 | > 100 | > 100 | – | – | – | – | – | – | – | – | – | – | – | –
O=C(O)COc1ccc(C(=O)/C(SS/C(C(=O)c2ccc(OCC(=O)O)c(Cl)c2Cl)=C2\C=C(c3ccccc3Cl)SS2)=C2/C=C(c3ccccc3Cl)SS2)c(Cl)c1Cl | 6.91 | 36.7 | 68.2 | > 58.7 | 60.2 | > 71.4 | > 83.1 | > 100 | – | – | – | – | – | – | – | – | – | – | – | –
O=C(O)c1cn(C2CC2)c2cc(N3CCN(Cc4ccc5ccccc5c4O)CC3)c(F)cc2c1=O | – | 5.42 | – | – | > 100 | – | – | > 100 | 2.34 µM | – | 3.51 µM | 3.44 | – | – | – | – | – | – | – | –
COc1cc(/C=C/c2cc(O)c(C/C=C(\C)CC/C=C(\C)CO)c(O)c2)cc2c1O[C@]1(C)CC[C@@H](O)C(C)(C)[C@H]1C2 | – | – | – | 46.5 | > 93.7 | > 100 | > 100 | > 100 | 0.0172 µM and 0.13 µM | – | 4.93 µM and 20.5 µM | – | > 54.7 | > 100 | 4.14 | – | – | > 100 | 26.4 | –
O=C1N=C(Nc2nc(-c3csc(NC4=NC(=O)/C(=C\c5ccc(Cl)cc5)S4)n3)cs2)S/C1=C/c1ccc(Cl)cc1 | – | 12 | > 50 | – | > 50 | 35.6 | 18.1 | 33.7 | 1.6 µM | – | 13.5 µM | 7.85 | – | > 50 | – | 17.6 | 10.1 | 5.14 | 17 | –

SMILES | TGI [1] [µM] | TGI [2] [µM] | TGI [3] [µM] | TGI [4] [µM] | TGI [5] [µM] | TGI [6] [µM] | TGI [7] [µM] | TGI [8] [µM] | GI50 [2] | GI50 [4] [µM] | GI50 [5] | GI50 [8] [µM] | TGI [9] [µM] | TGI [10] [µM] | GI50 [9] [µM] | GI50 [3] [µM] | GI50 [6] [µM] | GI50 [7] [µM] | GI50 [10] [µM] | GI50 [1] [nM]
CCCCC(C(=O)CCC(=O)Nc1ccc(Cl)cc1)C(=O)C(C)C (stereo unspecified) | > 100 | > 100 | > 100 | > 100 | > 100 | > 100 | > 100 | > 100 | – | – | – | – | – | – | – | – | – | – | – | –
Cn1cnc([N+](=O)[O-])c1Sc1nc2ccc([N+](=O)[O-])cc2[nH]1 | 41.5 | > 100 | 67.6 | 57.8 | 72 | > 100 | 33.5 | – | – | – | – | – | – | – | – | – | – | – | – | –
NC(=O)c1ncn(Cc2ccccc2)c1CNC(N)=S | > 100 | > 100 | > 100 | – | > 100 | > 100 | – | > 100 | – | – | – | – | – | – | – | – | – | – | – | –
O=C1CC[C@@H](NC(=O)Cc2ccccc2)C(=O)N1 | > 100 | > 100 | > 100 | > 100 | > 100 | > 100 | > 100 | > 100 | – | – | – | – | – | – | – | – | – | – | – | –
Nc1nc2ncn(CC(O)COC(=O)c3ccccc3)c2c(=O)[nH]1 (stereo unspecified) | > 100 | > 100 | > 100 | > 100 | > 100 | > 100 | > 100 | > 100 | – | – | – | – | – | – | – | – | – | – | – | –
N#Cc1c(N)c(C#N)c2c(c1-c1ccc(Cl)cc1)COc1ccc(F)cc1-2 | > 50 | > 50 | > 50 | – | 39.2 | > 50 | > 50 | > 50 | 20 µM | – | 7.11 µM | > 50 | – | > 50 | – | 10.9 | 12.3 | > 50 | 14.7 | > 50000
COc1ccc2c(c1)C(=O)c1c-2c(N2CCN(C(=O)CCNCCNCCO)CC2)nc2ccccc12 | – | 25.6 | 31.4 | 5.52 | – | 53.1 | 42.1 | 31.7 | 11.4 µM | 2.36 | – | 15.9 | 21.2 | 24.5 | 7.14 | 13.9 | 16.3 | 20.8 | 12.1 | –
ClCCCCOC1CCCCO1 (stereo unspecified) | – | > 100 | > 100 | > 100 | > 100 | > 100 | > 100 | > 100 | – | – | – | – | – | – | – | – | – | – | – | –
c1ccc2c(c1)N=C(c1ccc3ccccc3c1)CC(c1cccc3ccccc13)S2 (stereo unspecified) | – | > 100 | > 100 | – | > 100 | > 100 | > 100 | > 100 | – | – | – | – | – | – | – | – | – | – | – | –
N#Cc1cn(-c2c3ccccc3nc3ccccc23)c(=O)[nH]c1=O | 24.6 | 13.5 | 25 | > 100 | – | 79.5 | 27.7 | – | – | – | – | – | – | – | – | – | – | – | – | –
CC1CC(c2ccc(Cl)c(Cl)c2)=Nc2ccccc2S1 (stereo unspecified) | > 100 | > 100 | > 100 | > 100 | > 100 | > 100 | > 100 | > 100 | – | – | – | – | – | – | – | – | – | – | – | –
Cc1ccc2nc3c(C)cc(=O)cc-3sc2c1 | 46.7 | 35.4 | 83.9 | 34.2 | 52.8 | 65.4 | 59.2 | 48.8 | – | – | – | – | – | – | – | – | – | – | – | –
NCC1(N2CCOCC2)C2CCCC21CNc1ccccc1 (stereo unspecified) | > 100 | > 100 | > 100 | > 100 | > 100 | > 100 | > 100 | > 100 | – | – | – | – | – | – | – | – | – | – | – | –
Cc1cc(C#Cc2ccccc2)ccc1-n1c(/C=C/c2cc(O)ccc2O)nc2ccccc2c1=O | 2.87 | 3.15 | 3.1 | 2.77 | 3.12 | 3.07 | 2.94 | 3.01 | 1.74 µM | 1.46 | 1.48 µM | 1.62 | – | 1.62 | – | 1.16 | 1.65 | 1.56 | 0.419 | 1100
CN1CCc2cc3c4cc2C1Cc1ccc(cc1)Oc1cc(ccc1O)CC1c2c(cc(O)c(c2O4)O3)CCN1C (stereo unspecified) | > 100 | 10.9 | 13.6 | 3.19 | 13.5 | 4.43 | 4.04 | 14.8 | – | – | – | – | – | – | – | – | – | – | – | –
O=C(NC1C(=O)NNC1c1ccccc1Cl)c1ccccc1 (stereo unspecified) | > 100 | > 100 | > 100 | > 100 | > 100 | > 100 | > 100 | > 100 | – | – | – | – | – | – | – | – | – | – | – | –
